Results from patent US20240158446A1, “CYCLIC COMPOUND HAVING SELECTIVE INHIBITORY ACTION ON KRAS OVER HRAS AND NRAS” (CHUGAI SEIYAKU KABUSHIKI KAISHA, priority 2021, published 2024).
Read-outs that look alike come from different tables or passages of the source. *1 amine or outer side, *2 acyl side, *3 side chain or, on linkers, in order; H or OH if unused. Where a SMILES comes first, the peptide text is derived from it. Bridges are numbered along the chain shown (N, C = ends). [ ]: non-standard residue; d: D form. The star is where a group is joined. hPhe(3-Cl-4-CF3) = N[C@@H](CCc1ccc(C(F)(F)F)c(Cl)c1)C(=O)O; NPrPhe(4-CF3) = CCCN[C@@H](Cc1ccc(C(F)(F)F)cc1)C(=O)O; X16 = CCCN([C@@H](Cc1ccc(OC)cc1)C(=O)[*:2])[*:1]; NMeGly(cPent) = CN[C@H](C(=O)O)C1CCCC1; X44 = CC1(C)CN([*:1])[C@@H]1C(=O)[*:2]; NMeD = CN[C@@H](CC(=O)O)C(=O)O; NMeL = CN[C@@H](CC(C)C)C(=O)O; Morpholide = C1CN(*)CCO1; NMeA = CN[C@@H](C)C(=O)O; Ac5c = NC1(C(=O)O)CCCC1; Aze = O=C(O)[C@@H]1CCN1; Sar = CNCC(=O)O

Columns and labels:
[1] = molecular target: GDP-bound KRAS wild-type protein (Homo sapiens, UniProt P01116); assay: Binding to KRAS by surface plasmon resonance (SPR), Single Cycle Kinetics; conditions: GDP-bound KRAS wild-type protein, read-out: KRAS KD
[2] = molecular target: GDP-bound NRAS wild-type protein (Homo sapiens, UniProt P01111); assay: Binding to NRAS by surface plasmon resonance (SPR), Single Cycle Kinetics; conditions: for NRAS/KRAS (ratio of KD value for NRAS to KD value for KRAS) / NRAS/KRAS (ratio of KD value with respect to NRAS to KD value with respect to KRAS): GDP-bound NRAS wild-type protein vs GDP-bound KRAS wild-type protein; for NRAS/KRAS (ratio of KD value with respect to GDP-bound NRAS wild-type protein to KD value with respect to KRAS): SPR KD ratio NRAS/KRAS, class symbols
[3] = molecular target: GDP-bound HRAS wild-type protein (Homo sapiens, UniProt P01112); assay: Binding to HRAS by surface plasmon resonance (SPR), Single Cycle Kinetics; conditions: for HRAS/KRAS (ratio of KD value for HRAS to KD value for KRAS) / HRAS/KRAS (ratio of KD value with respect to HRAS to KD value with respect to KRAS): GDP-bound HRAS wild-type protein vs GDP-bound KRAS wild-type protein; for HRAS/KRAS (ratio of KD value with respect to GDP-bound HRAS wild-type protein to KD value with respect to KRAS): SPR KD ratio HRAS/KRAS, class symbols
[4] = SPR Single Cycle Kinetics, 1:1 binding model

Sequence of GDP-bound KRAS wild-type protein (P01116 whole entry): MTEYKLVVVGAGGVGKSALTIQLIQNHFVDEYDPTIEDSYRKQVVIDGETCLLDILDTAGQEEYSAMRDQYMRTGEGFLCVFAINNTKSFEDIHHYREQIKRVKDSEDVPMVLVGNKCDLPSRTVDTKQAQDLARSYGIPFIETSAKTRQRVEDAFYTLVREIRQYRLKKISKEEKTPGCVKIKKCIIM
Sequence of GDP-bound HRAS wild-type protein (P01112 whole entry): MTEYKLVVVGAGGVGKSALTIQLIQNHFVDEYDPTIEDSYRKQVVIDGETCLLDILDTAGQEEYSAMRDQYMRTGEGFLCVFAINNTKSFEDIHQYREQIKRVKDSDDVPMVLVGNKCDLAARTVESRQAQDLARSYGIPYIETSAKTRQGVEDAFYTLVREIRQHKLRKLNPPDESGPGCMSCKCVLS
Sequence of GDP-bound NRAS wild-type protein (P01111 whole entry): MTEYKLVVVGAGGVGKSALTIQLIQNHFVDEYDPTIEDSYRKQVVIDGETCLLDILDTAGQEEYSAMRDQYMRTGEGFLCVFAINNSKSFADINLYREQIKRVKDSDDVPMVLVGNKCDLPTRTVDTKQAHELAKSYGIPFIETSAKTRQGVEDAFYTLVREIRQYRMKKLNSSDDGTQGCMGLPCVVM

| Compound | Kd ([1]; SPR, Single Cycle Kinetics) | NRAS/KRAS (ratio of KD value for NRAS to KD value for KRAS) ([2]; SPR) | HRAS/KRAS (ratio of KD value for HRAS to KD value for KRAS) ([3]; SPR) | Kd [1, 4] | further results |
| --- | --- | --- | --- | --- | --- |
| C#CCN1CC(=O)N(C)[C@H]2C/C=C\CCN(C2=O)[C@@H](Cc2ccc(C(F)(F)F)cc2)C(=O)N(C)CC(=O)N[C@@H](CCc2ccc(C(F)(F)F)c(OC)c2)C(=O)N2C[C@H](OCC)C[C@H]2C(=O)NC2(CC(C)(C)C2)C(=O)N(C)[C@@H](C2CCCC2)C(=O)N(C)[C@H](C(=O)N(C)C)CC(=O)N(C)[C@@H](CCC)C(=O)N[C@@H]([C@@H](C)CC)C1=O [PP2107] | 0.15 nM | A (a compound having 10 or more and less than 20 is denoted as A) | A (a compound having 10 or more and less than 20 is denoted as A) | – | – |
| CCC[C@H]1C(=O)N[C@@H](C2CCCCC2)C(=O)N(C)CC(=O)N(C)[C@H]2C/C=C\CCN(C2=O)[C@@H](Cc2ccc(C(F)(F)F)cc2)C(=O)N(C)CC(=O)N[C@@H](CCc2ccc(C(F)(F)F)c(Cl)c2)C(=O)N2C[C@H](OCC)C[C@H]2C(=O)NC2(CC(C)(C)C2)C(=O)N(C)[C@@H](CC(C)(C)C)C(=O)N(C)[C@H](C(=O)N(C)C)CC(=O)N1C [PP3014] | 0.37 nM | AA (a compound having 20 or more is denoted as AA) | A (a compound having 10 or more and less than 20 is denoted as A) | – | – |
| CCCN1C(=O)CN(C)C(=O)[C@H]2N(CC2(C)C)C(=O)[C@H]([C@@H](C)CC)NC(=O)[C@H](CC(C)C)N(C)C(=O)C[C@@H](C(=O)N2CCOCC2)N(C)C(=O)[C@H](C2CCCC2)N(C)C(=O)C2(CCCC2)NC(=O)[C@@H]2CCCN2C(=O)[C@H](CCc2ccc(C(F)(F)F)c(Cl)c2)NC(=O)CN(C)C(=O)[C@@H]1Cc1ccc(C(F)(F)F)cc1 [PP0256] ([NMeL]I[X44][Sar][NPrPhe(4-CF3)][Sar][hPhe(3-Cl-4-CF3)]P[Ac5c][NMeGly(cPent)][NMeD]-Morpholide; lactam N-11) | – | B (a compound having 3 or more and less than 10 is denoted as B) | C (A compound having a KD ratio of 0.1 or more and less than 3 is denoted as C) | 0.99 nM | – |
| CCCOC[C@H]1C(=O)N[C@@H]([C@@H](C)CC)C(=O)N2CCC[C@H]2C(=O)N(C)[C@H]2C/C=C\CCN(C2=O)[C@@H](Cc2ccc(C)cc2)C(=O)N(C)CC(=O)N[C@@H](CCc2ccc(C(F)(F)F)c(OC)c2)C(=O)N2C[C@H](OCC)C[C@H]2C(=O)N(C)C2(CCC2)C(=O)N(C)[C@@H](C(CC)CC)C(=O)N(C)[C@H](C(=O)N(C)C)CC(=O)N1C [PP2331] | 0.36 nM | AA (a compound having 20 or more is denoted as AA) | A (a compound having 10 or more and less than 20 is denoted as A) | – | – |
| CCC(CC)[C@H]1C(=O)N(C)[C@H](C(=O)N(C)C)CC(=O)N(C)[C@@H](COC)C(=O)N[C@@H]([C@@H](C)CC)C(=O)N(C)CC(=O)N(C)[C@H]2C/C=C\CCN(C2=O)[C@@H](Cc2ccc(C(F)(F)F)cc2)C(=O)N(C)CC(=O)N[C@@H](CCc2ccc(Cl)c(Cl)c2)C(=O)N2CCOC[C@H]2C(=O)NC2(CC(C)(C)C2)C(=O)N1C [PP2941] | – | – | – | 2.5 nM | NRAS/KRAS (ratio of KD value with respect to GDP-bound NRAS wild-type protein to KD value with respect to KRAS) [2]: AA (a compound having 20 or more is denoted as AA); HRAS/KRAS (ratio of KD value with respect to GDP-bound HRAS wild-type protein to KD value with respect to KRAS) [3]: A (a compound having 10 or more and less than 20 is denoted as A) |
| CCCN1C(=O)[C@@H]2CCN2C(=O)[C@H](C)N(C)C(=O)[C@H]([C@@H](C)CC)NC(=O)[C@H](CC(C)C)N(C)C(=O)C[C@@H](C(=O)N2CCOCC2)N(C)C(=O)[C@H](C2CCCC2)N(C)C(=O)C2(CCCC2)NC(=O)[C@@H]2CCCN2C(=O)[C@H](CCc2ccc(C(F)(F)F)c(Cl)c2)NC(=O)CN(C)C(=O)[C@@H]1Cc1ccc(OC)cc1 [PP0134] ([NMeL]I[NMeA][Aze][X16][Sar][hPhe(3-Cl-4-CF3)]P[Ac5c][NMeGly(cPent)][NMeD]-Morpholide; lactam N-11) | – | C (A compound having a KD ratio of 0.1 or more and less than 3 is denoted as C) | B (a compound having 3 or more and less than 10 is denoted as B) | 0.66 nM | – |
| CCO[C@@H]1C[C@H]2C(=O)NC3(CC(C)(C)C3)C(=O)N(C)[C@@H](C(CC)CC)C(=O)N(C)[C@H](C(=O)N(C)C)CC(=O)N(C)[C@@H](COC)C(=O)N[C@@H]([C@@H](C)CC)C(=O)N(C)CC(=O)N(C)[C@H]3C/C=C\CCN(C3=O)[C@@H](Cc3ccc(C(F)(F)F)cc3)C(=O)N(C)CC(=O)N[C@@H](CCc3ccc(C(F)(F)F)c(Cl)c3)C(=O)N2C1 [PP2126] | 0.23 nM | A (a compound having 10 or more and less than 20 is denoted as A) | B (a compound having 3 or more and less than 10 is denoted as B) | – | – |
| CCO[C@@H]1C[C@H]2C(=O)NC3(CC(C)(C)C3)C(=O)N(C)[C@@H](C3CCCC3)C(=O)N(C)[C@H](C(=O)N(C)C)CC(=O)N(C)[C@H]3CCCC/C=C/c4ccc(cc4)C[C@@H](C(=O)N(C)CC(=O)N[C@@H](CCc4cc(F)c(C(F)(F)F)c(F)c4)C(=O)N2C1)N1CC/C=C\C[C@@H](C1=O)N(C)C(=O)CN(C)C(=O)[C@H]([C@@H](C)CC)NC3=O [PP1831] | 0.025 nM | – | – | – | NRAS/KRAS (KD ratio) ([2]; ratio of KD for GDP-bound NRAS wild-type protein to KD for KRAS, SPR): A (a compound having 10 or more and less than 20 is denoted as A); HRAS/KRAS (KD ratio) ([3]; ratio of KD for GDP-bound HRAS wild-type protein to KD for KRAS, SPR): A (a compound having 10 or more and less than 20 is denoted as A) |
| CC[C@H](C)[C@@H]1NC(=O)[C@H](CC(C)C)N(C)C(=O)C[C@@H](C(=O)N2CCOCC2)N(C)C(=O)[C@H](C2CCCC2)N(C)C(=O)C2(CCCC2)NC(=O)[C@@H]2CCCN2C(=O)[C@H](CCc2ccc(C(F)(F)F)c(Cl)c2)NC(=O)CN(C)C(=O)[C@H](Cc2ccc(OC(F)(F)F)cc2)N2CC=CC[C@@H](C2=O)N(C)C(=O)CN(C)C1=O [PP0537] | – | – | – | 5.8 nM | NRAS/KRAS (ratio of KD value with respect to NRAS to KD value with respect to KRAS) ([2]; SPR): C (A compound having a KD ratio of 0.1 or more and less than 3 is denoted as C); HRAS/KRAS (ratio of KD value with respect to HRAS to KD value with respect to KRAS) ([3]; SPR): C (A compound having a KD ratio of 0.1 or more and less than 3 is denoted as C) |
| CCO[C@@H]1C[C@H]2C(=O)NC3(CCCC3)C(=O)N(C)[C@@H](C3CCCC3)C(=O)N(C)[C@H](C(=O)N(C)C)CC(=O)N(C)[C@@H](CC(C)C)C(=O)N[C@@H]([C@@H](C)CC)C(=O)N(C)CC(=O)N(C)[C@H]3C/C=C\CCN(C3=O)[C@@H](Cc3ccc(C(F)(F)F)cc3)C(=O)N(C)CC(=O)N[C@@H](CCc3ccc(C(F)(F)F)c(Cl)c3)C(=O)N2C1 [PP2838] | – | – | – | 0.066 nM | NRAS/KRAS (ratio of KD value with respect to GDP-bound NRAS wild-type protein to KD value with respect to KRAS) [2]: AA (a compound having 20 or more is denoted as AA); HRAS/KRAS (ratio of KD value with respect to GDP-bound HRAS wild-type protein to KD value with respect to KRAS) [3]: A (a compound having 10 or more and less than 20 is denoted as A) |
| CCO[C@@H]1C[C@H]2C(=O)NC3(CCC3)C(=O)N(C)[C@@H](C3CCCC3)C(=O)N(C)[C@H](C3CCCCC3)CC(=O)N(C)[C@@H](COC)C(=O)N[C@@H]([C@@H](C)CC)C(=O)N(C)CC(=O)N(C)[C@H]3C/C=C\CCN(C3=O)[C@@H](Cc3ccc(C(F)(F)F)cc3)C(=O)N(C)CC(=O)N[C@@H](CCc3cc(F)c(C(F)(F)F)c(F)c3)C(=O)N2C1 [PP1584] | – | – | – | – | Kd ([1]; SPR, Single Cycle Kinetics, 1:1 binding model): 0.56 nM; NRAS/KRAS (ratio of KD value for NRAS to KD value for KRAS) ([2]; SPR, KD ratio class): B (a compound having 3 or more and less than 10 is denoted as B); HRAS/KRAS (ratio of KD value for HRAS to KD value for KRAS) ([3]; SPR, KD ratio class): B (a compound having 3 or more and less than 10 is denoted as B) |
| CC[C@H](C)[C@@H]1NC(=O)[C@H](C)N(C)C(=O)C[C@@H](C(=O)N(C)C)N(C)C(=O)[C@H](C2CCCC2)N(C)C(=O)C2(CCCC2)NC(=O)[C@@H]2CC(F)(F)CN2C(=O)[C@H](CCc2cc(F)c(C(F)(F)F)c(F)c2)NC(=O)CN(C)C(=O)[C@H](Cc2ccc(C(F)(F)F)cc2)N2CCCCC[C@@H](C2=O)N(C)C(=O)CN(C)C1=O [PP0472] | – | – | – | 0.77 nM | NRAS/KRAS (ratio of KD value with respect to NRAS to KD value with respect to KRAS) ([2]; SPR): B (a compound having 3 or more and less than 10 is denoted as B); HRAS/KRAS (ratio of KD value with respect to HRAS to KD value with respect to KRAS) ([3]; SPR): B (a compound having 3 or more and less than 10 is denoted as B) |
| CCCOC[C@H]1C(=O)N[C@@H]([C@@H](C)CC)C(=O)N(C2CC2)CC(=O)N(C)[C@H]2C/C=C\CCN(C2=O)[C@@H](Cc2ccc(C)cc2)C(=O)N(C)CC(=O)N[C@@H](CCc2ccc(C(F)(F)F)c(OC)c2)C(=O)N2C[C@H](OCC)C[C@H]2C(=O)N(C)C2(CCC2)C(=O)N(C)[C@@H](C(CC)CC)C(=O)N(C)[C@H](C(=O)N(C)C)CC(=O)N1C [PP2327] | 0.5 nM | A (a compound having 10 or more and less than 20 is denoted as A) | A (a compound having 10 or more and less than 20 is denoted as A) | – | – |
